Reference: US20050014647A1, “Method and composition for determining resistance to an acetohydroxy-acid synthase inhibitor” (priority 2001, published 2005)
Values joined by “and” are separate entries in the source; they are usually repeats but may differ in a detail not shown here. Identical values can stand only once.

Key:
Format in all cases: cell-based
AHAS [1] = assay: AHAS assay of resistant and non-resistant crops, maize stem slices; parameters: dose or concentration left out as unconfirmed; conditions: imazamox and CPCA, average of four plants
Experimental: (§1) For the experiments, plants are grown from seed in soil in a greenhouse. The experiments used wild type and imidazolinone resistant varieties of maize and wheat.
(§2) For the assay, a microtiter plate is set up with […] of one of the following solutions in each well: • Solution A: 10 mM phosphate buffer (pH 4.4), 10% prepared Murashige and Skoog basal mineral salt stock solution, 0.5% (w/v) alanine, 50 mM pyruvate salt, and 0.5 mM CPCA (cyclopropyldicarboxylic acid); • Solution B: Solution A+0.0025 mM imazamox; • Solution C: Solution A without 0.5 mM CPCA
(§3) Plant material is excised from the newest emerging leaf for wheat or rapidly growing stem for maize from the test plant and placed in one of the microtiter plates. Usually, 3 to 5 mm slices are cut from the newest emerging leaf or stem. At least 3 same-length slices per plant are cut. One disc is put in a well with Solution A, one in a well with Solution B, and the last one in a well with Solution C.
(§4) After all wells in the microtiter plate contain plant material, the plate is covered with a plate cover and is placed under continuous fluorescent lights for 14 to 18 hours. The incubation is stopped by placing the plate in a −20° C. freezer. After tissue and solutions freeze, the plate is thawed at room temperature, and […] of 5% sulfuric acid is added to each well. After incubation at 60° C. for 15 minutes, […] of a freshly prepared mixture of α-naphthol (2.5%, w/v) and creatine (0.25%, w/v) in 2 N NaOH are added to each well and the plate is incubated at 60° C. for 15 minutes.
(§5) A 190 μl solution from each well is transferred to a new plate, and OD530 on microtiter plate is readed by a spectrophotometer.
(§6) AHAS activity of each plant is determined by the following formula: (OD530 of well B−OD530 of well C)/(OD530 of well A−OD530 of well C).

AHAS [2] = assay: AHAS assay of resistant and non-resistant crops, wheat leaf slices; parameters: dose or concentration left out as unconfirmed; conditions: imazamox and CPCA, average of four plants
Experimental: as §1, §2, §3, §4, §5, §6

AHAS [3] = assay: in vivo AHAS assay, canola leaf discs with external supplement; conditions: canola, 14 hours; for % of 0/0 / OD 530, Avg. of the treated discs / OD 530, Treated: replicates 1-3; for OD 530, Treated: single treated discs; for % of No Alaninor Pyruvate: Alanine 0 %
Experimental: The procedure for the preparation of an in vivo AHAS assay is described below:
For the experiments, plants are grown from seed in soil in a greenhouse. Most experiments used wild type and imidazolinone resistant varieties of wheat, canola, rice, sunflower, and maize.
For the assay, a a microtiter plate is set up with 100 μl of one of the following solutions in each well: • a. Solution A: 10 mM phosphate buffer, pH 6; 10% Murashige and Skoog basal mineral salts (according to Murashige, T. and Skoog, F., Physiol. Plant., 15 473-497 (1962)); 500 μM CPCA (cyclopropyldicarboxylic acid); • b. Solution B: Solution A+alanine (or other supplements); • c. Solution C: Solution A+a pyruvate salt (or other supplements).
Plant material is excised from the newest emerging, rapidly growing leaf or stem from the test plant and placed in one of the microtiter plates. Usually, 5 mm leaf discs are cut from the newest emerging leaf. At least 2 discs per plant are cut. One disc is put in a well with Solution A and the other disc in a well with one of the other Solutions B or C (what solution are you using for background?).
After all wells in the microtiter plate contain plant material, the plate is covered with the microtiter plate cover and the plate with material is placed in a chamber with continuous fluorescent lights for 12 to 16 hours. The incubation is stopped by placing the plate in −20° C. freezer. After tissue and solutions freeze, the plate is thawed at room temperature and 25 μL of 5% sulfuric acid are added to each well. After incubation at 60° C. for 15 minutes, 175 μL of a freshly prepared mixture of α-naphthol (2.5%) and creatine (0.25%) in 2 N NaOH are added to each well and the plate is incubated at 60° C. for 15 minutes.
200 μL from each well are transferred to a new plate and OD530 on microtiter plate is readed by a spectrophotometer.

With `COCc1cnc(C2=NC(C)(C(C)C)C(=O)N2)c(C(=O)O)c1` (stereo not shown) [imazamox] the “Relative AHAS activity (%)” value (AHAS [1]; Maize variety Garst 8541 IT (Moderate-resistance)) was 45.2%, the “Relative AHAS activity (%)” value (AHAS [1]; Maize variety Pioneer 3395 IR (High-resistance)) was 67.3% and the “Relative AHAS activity (%)” value (AHAS [1]; Maize variety Pioneer 3514 (Non-resistance)) was 5.8%. For the same compound, the “Relative AHAS activity (%)” value (AHAS [2]; Wheat variety CV 9804 (Moderate-resistance)) was 22.4%, the “Relative AHAS activity (%)” value (AHAS [2]; Wheat variety Riband (Non-resistance)) was 1.5% and the “Relative AHAS activity (%)” value (AHAS [2]; Wheat variety Teal 15A (High-resistance)) was 57.7%.
With `N.O` [NH4OH, ammonium hydroxide] the “% of No NH4 or Pyruvate” value (AHAS [3]; NH4 6.25 mM, Pyruvate 0 mM) was 101%, the “% of No NH4 or Pyruvate” value (AHAS [3]; NH4 12.5 mM, Pyruvate 0 mM) was 138% and the “% of No NH4 or Pyruvate” value (AHAS [3]; NH4 25 mM, Pyruvate 0 mM) was 128%. For the same compound, the “% of No NH4 or Pyruvate” value (AHAS [3]; NH4 50 mM, Pyruvate 0 mM) was 142%, the “% of 0/0” value (AHAS [3]; NH4OH (50 mM)) was 113% and 111% and 157% and the “OD 530, Avg. of the treated discs” value (AHAS [3]; NH4OH (50 mM)) was 0.697 and 0.886 and 1.386. The “OD 530, Treated” value (AHAS [3]; NH4OH (50 mM)) was 0.604 and 0.880 and 1.386 and 0.522 and 0.866 and 1.177 and 1.003 and 0.953 and 1.845.
In the case of `CC(=O)C(=O)O` [Pyruvate, Na-Pyruvate], the “% of No Alaninor Pyruvate” value (AHAS [3]; Pyruvate 25 mM) is reported as 110%, the “% of No Alaninor Pyruvate” value (AHAS [3]; Pyruvate 50 mM) is reported as 139% and the “% of No NH4 or Pyruvate” value (AHAS [3]; NH4 0 mM, Pyruvate 6.25 mM) is reported as 109%. For the same compound, the “% of No NH4 or Pyruvate” value (AHAS [3]; NH4 0 mM, Pyruvate 12.5 mM) was 128%, the “% of No NH4 or Pyruvate” value (AHAS [3]; NH4 0 mM, Pyruvate 25 mM) was 138% and the “% of No NH4 or Pyruvate” value (AHAS [3]; NH4 0 mM, Pyruvate 50 mM) was 175%. The “% of 0/0” value (AHAS [3]; Pyruvate (100 mM)) was 134% and 153% and 188%, the “OD 530, Avg. of the treated discs” value (AHAS [3]; Pyruvate (100 mM)) was 1.510 and 1.730 and 1.950 and the “OD 530, Treated” value (AHAS [3]; Pyruvate (100 mM)) was 1.526 and 1.848 and 1.972 and 1.469 and 1.846 and 2.235 and 1.725 and 1.796 and 2.100.
In the case of `NC(=O)C[C@H](N)C(=O)O` [Asparagine, L-asparagine], the “% of 0/0” value (AHAS [3]; Asparagine (100 mM)) is reported as 107% and 141% and 91%, the “OD 530, Avg. of the treated discs” value (AHAS [3]; Asparagine (100 mM)) is reported as 1.384 and 0.796 and 1.206 and the “OD 530, Treated” value (AHAS [3]; Asparagine (100 mM)) is reported as 1.011 and 0.718 and 1.279 and 1.343 and 0.880 and 1.094 and 1.843 and 0.907 and 1.186.
